Assay results reported in ChEMBL document CHEMBL1671673, “In vitro activity of colistin (polymyxin E) against 3,480 isolates of gram-negative bacilli obtained from patients in Canadian hospitals in the CANWARD study, 2007-2008” (Antimicrob Agents Chemother, 2009).

Columns and labels:
Type in all cases: functional, organism-based
[1] = tested on: Pseudomonas aeruginosa; assay: Antibacterial activity against Pseudomonas aeruginosa assessed as susceptible isolates at minimum inhibitory concentration of 2 ug/ml by CLSI broth microdilution method; parameters: scale not given: the % may be the effect or the level left
[2] = tested on: Stenotrophomonas maltophilia; assay: Antibacterial activity against Stenotrophomonas maltophilia assessed as susceptible isolates at minimum inhibitory concentration of 2 ug/ml by CLSI broth microdilution method; parameters: scale not given: the % may be the effect or the level left
[3] = tested on: Pseudomonas aeruginosa; assay: Antibacterial activity against Cefepime-resistant Pseudomonas aeruginosa assessed as susceptible isolates at minimum inhibitory concentration of 4 ug/ml by CLSI broth microdilution method; parameters: scale not given: the % may be the effect or the level left
[4] = tested on: Serratia marcescens; assay: Antibacterial activity against Serratia marcescens assessed as susceptible isolates at minimum inhibitory concentration of <=0.06 ug/ml by CLSI broth microdilution method; parameters: scale not given: the % may be the effect or the level left
[5] = tested on: Acinetobacter baumannii; assay: Antibacterial activity against Acinetobacter baumannii assessed as susceptible isolates at minimum inhibitory concentration of 8 ug/ml by CLSI broth microdilution method; parameters: scale not given: the % may be the effect or the level left
[6] = tested on: Proteus mirabilis; assay: Antibacterial activity against Proteus mirabilis assessed as susceptible isolates at minimum inhibitory concentration of <=0.06 ug/ml by CLSI broth microdilution method; parameters: scale not given: the % may be the effect or the level left
[7] = tested on: Pseudomonas aeruginosa; assay: Antibacterial activity against Ciprofloxacin-resistant Pseudomonas aeruginosa assessed as susceptible isolates at minimum inhibitory concentration of >16 ug/ml by CLSI broth microdilution method; parameters: scale not given: the % may be the effect or the level left
[8] = tested on: Escherichia coli; assay: Antibacterial activity against ESBL-producing Escherichia coli assessed as susceptible isolates at minimum inhibitory concentration of <=0.06 ug/ml by CLSI broth microdilution method; parameters: scale not given: the % may be the effect or the level left
[9] = tested on: Serratia marcescens; assay: Antibacterial activity against Serratia marcescens assessed as susceptible isolates at minimum inhibitory concentration of >16 ug/ml by CLSI broth microdilution method; parameters: scale not given: the % may be the effect or the level left
[10] = tested on: Stenotrophomonas maltophilia; assay: Antibacterial activity against Stenotrophomonas maltophilia assessed as susceptible isolates at minimum inhibitory concentration of 16 ug/ml by CLSI broth microdilution method; parameters: scale not given: the % may be the effect or the level left
[11] = tested on: Acinetobacter baumannii; assay: Antibacterial activity against Acinetobacter baumannii assessed as susceptible isolates at minimum inhibitory concentration of 1 ug/ml by CLSI broth microdilution method; parameters: scale not given: the % may be the effect or the level left
[12] = tested on: Klebsiella oxytoca; assay: Antibacterial activity against Klebsiella oxytoca assessed as susceptible isolates at minimum inhibitory concentration of 8 ug/ml by CLSI broth microdilution method; parameters: scale not given: the % may be the effect or the level left
[13] = tested on: Pseudomonas aeruginosa; assay: Antibacterial activity against Ciprofloxacin-resistant Pseudomonas aeruginosa assessed as susceptible isolates at minimum inhibitory concentration of 8 ug/ml by CLSI broth microdilution method; parameters: scale not given: the % may be the effect or the level left
[14] = tested on: Pseudomonas aeruginosa; assay: Antibacterial activity against Levofloxacin-resistant Pseudomonas aeruginosa assessed as susceptible isolates at minimum inhibitory concentration of 1 ug/ml by CLSI broth microdilution method; parameters: scale not given: the % may be the effect or the level left
[15] = tested on: Klebsiella oxytoca; assay: Antibacterial activity against Klebsiella oxytoca assessed as susceptible isolates at minimum inhibitory concentration of <=0.06 ug/ml by CLSI broth microdilution method; parameters: scale not given: the % may be the effect or the level left
[16] = tested on: Pseudomonas aeruginosa; assay: Antibacterial activity against tazobactam-resistant Pseudomonas aeruginosa assessed as susceptible isolates at minimum inhibitory concentration of 0.5 ug/ml by CLSI broth microdilution method; parameters: scale not given: the % may be the effect or the level left
[17] = tested on: Escherichia coli; assay: Antibacterial activity against ESBL-producing Escherichia coli assessed as susceptible isolates at minimum inhibitory concentration of 4 ug/ml by CLSI broth microdilution method; parameters: scale not given: the % may be the effect or the level left
[18] = tested on: Stenotrophomonas maltophilia; assay: Antibacterial activity against Stenotrophomonas maltophilia assessed as susceptible isolates at minimum inhibitory concentration of 0.25 ug/ml by CLSI broth microdilution method; parameters: scale not given: the % may be the effect or the level left
[19] = tested on: Proteus mirabilis; assay: Antibacterial activity against Proteus mirabilis assessed as susceptible isolates at minimum inhibitory concentration of 0.5 ug/ml by CLSI broth microdilution method; parameters: scale not given: the % may be the effect or the level left
[20] = tested on: Pseudomonas aeruginosa; assay: Antibacterial activity against Gentamicin-resistant Pseudomonas aeruginosa assessed as susceptible isolates at minimum inhibitory concentration of 16 ug/ml by CLSI broth microdilution method; parameters: scale not given: the % may be the effect or the level left
[21] = tested on: Proteus mirabilis; assay: Antibacterial activity against Proteus mirabilis assessed as susceptible isolates at minimum inhibitory concentration of >16 ug/ml by CLSI broth microdilution method; parameters: scale not given: the % may be the effect or the level left
[22] = tested on: Serratia marcescens; assay: Antibacterial activity against Serratia marcescens assessed as susceptible isolates at minimum inhibitory concentration of 2 ug/ml by CLSI broth microdilution method; parameters: scale not given: the % may be the effect or the level left
[23] = tested on: Pseudomonas aeruginosa; assay: Antibacterial activity against Meropenem-resistant Pseudomonas aeruginosa assessed as susceptible isolates at minimum inhibitory concentration of 1 ug/ml by CLSI broth microdilution method; parameters: scale not given: the % may be the effect or the level left
[24] = tested on: Pseudomonas aeruginosa; assay: Antibacterial activity against Pseudomonas aeruginosa assessed as susceptible isolates at minimum inhibitory concentration of <=0.06 ug/ml by CLSI broth microdilution method; parameters: scale not given: the % may be the effect or the level left
[25] = tested on: Klebsiella pneumoniae; assay: Antibacterial activity against ESBL-producing Klebsiella pneumoniae assessed as susceptible isolates at minimum inhibitory concentration of <=0.06 ug/ml by CLSI broth microdilution method; parameters: scale not given: the % may be the effect or the level left
[26] = tested on: Enterobacter cloacae; assay: Antibacterial activity against Enterobacter cloacae assessed as susceptible isolates at minimum inhibitory concentration of 2 ug/ml by CLSI broth microdilution method; parameters: scale not given: the % may be the effect or the level left
[27] = tested on: Serratia marcescens; assay: Antibacterial activity against Serratia marcescens assessed as susceptible isolates at minimum inhibitory concentration of 8 ug/ml by CLSI broth microdilution method; parameters: scale not given: the % may be the effect or the level left
[28] = tested on: Klebsiella oxytoca; assay: Antibacterial activity against Klebsiella oxytoca assessed as susceptible isolates at minimum inhibitory concentration of 0.12 ug/ml by CLSI broth microdilution method; parameters: scale not given: the % may be the effect or the level left
[29] = tested on: Pseudomonas aeruginosa; assay: Antibacterial activity against Levofloxacin-resistant Pseudomonas aeruginosa assessed as susceptible isolates at minimum inhibitory concentration of 0.5 ug/ml by CLSI broth microdilution method; parameters: scale not given: the % may be the effect or the level left
[30] = tested on: Pseudomonas aeruginosa; assay: Antibacterial activity against Pseudomonas aeruginosa assessed as susceptible isolates at minimum inhibitory concentration of 0.5 ug/ml by CLSI broth microdilution method; parameters: scale not given: the % may be the effect or the level left
[31] = tested on: Pseudomonas aeruginosa; assay: Antibacterial activity against Pseudomonas aeruginosa assessed as susceptible isolates at minimum inhibitory concentration of >16 ug/ml by CLSI broth microdilution method; parameters: scale not given: the % may be the effect or the level left
[32] = tested on: Pseudomonas aeruginosa; assay: Antibacterial activity against Ciprofloxacin-resistant Pseudomonas aeruginosa assessed as susceptible isolates at minimum inhibitory concentration of 1 ug/ml by CLSI broth microdilution method; parameters: scale not given: the % may be the effect or the level left
[33] = tested on: Pseudomonas aeruginosa; assay: Antibacterial activity against Ciprofloxacin-resistant Pseudomonas aeruginosa assessed as susceptible isolates at minimum inhibitory concentration of 16 ug/ml by CLSI broth microdilution method; parameters: scale not given: the % may be the effect or the level left
[34] = tested on: Pseudomonas aeruginosa; assay: Antibacterial activity against Pseudomonas aeruginosa assessed as susceptible isolates at minimum inhibitory concentration of 8 ug/ml by CLSI broth microdilution method; parameters: scale not given: the % may be the effect or the level left
[35] = tested on: Stenotrophomonas maltophilia; assay: Antibacterial activity against Stenotrophomonas maltophilia assessed as susceptible isolates at minimum inhibitory concentration of 4 ug/ml by CLSI broth microdilution method; parameters: scale not given: the % may be the effect or the level left
[36] = tested on: Pseudomonas aeruginosa; assay: Antibacterial activity against Meropenem-resistant Pseudomonas aeruginosa assessed as susceptible isolates at minimum inhibitory concentration of 0.5 ug/ml by CLSI broth microdilution method; parameters: scale not given: the % may be the effect or the level left
[37] = tested on: Serratia marcescens; assay: Antibacterial activity against Serratia marcescens assessed as susceptible isolates at minimum inhibitory concentration of 0.5 ug/ml by CLSI broth microdilution method; parameters: scale not given: the % may be the effect or the level left
[38] = tested on: Pseudomonas aeruginosa; assay: Antibacterial activity against Gentamicin-resistant Pseudomonas aeruginosa assessed as susceptible isolates at minimum inhibitory concentration of 8 ug/ml by CLSI broth microdilution method; parameters: scale not given: the % may be the effect or the level left
[39] = tested on: Pseudomonas aeruginosa; assay: Antibacterial activity against Gentamicin-resistant Pseudomonas aeruginosa assessed as susceptible isolates at minimum inhibitory concentration of 1 ug/ml by CLSI broth microdilution method; parameters: scale not given: the % may be the effect or the level left
[40] = tested on: Pseudomonas aeruginosa; assay: Antibacterial activity against Pseudomonas aeruginosa assessed as intermediate isolates at 4 ug/ml by CLSI broth microdilution method

Sequence: COLISTIN
- Activity [1]: 91.6%
- Activity [2]: 15.7%
- Activity [3]: 100%
- Activity [4]: 0%
- Activity [5]: 93.5%
- Activity [6]: 0%
- Activity [7]: 100%
- Activity [8]: 0.1%
- Activity [9]: 100%
- Activity [10]: 56.6%
- Activity [11]: 74.2%
- Activity [12]: 98.1%
- Activity [13]: 98.6%
- Activity [14]: 30.7%
- Activity [15]: 0%
- Activity [16]: 1.8%
- Activity [17]: 99.5%
- Activity [18]: 1.2%
- Activity [19]: 0%
- Activity [20]: 99%
- Activity [21]: 100%
- Activity [22]: 1.9%
- Activity [23]: 33.3%
- Activity [24]: 0%
- Activity [25]: 0%
- Activity [26]: 83.9%
- Activity [27]: 1.9%
- Activity [28]: 0%
- Activity [29]: 1.8%
- Activity [30]: 2.5%
- Activity [31]: 100%
- Activity [32]: 31.3%
- Activity [33]: 98.6%
- Activity [34]: 99.1%
- Activity [35]: 33.7%
- Activity [36]: 3.5%
- Activity [37]: 0%
- Activity [38]: 99%
- Activity [39]: 35.6%
- Activity [40]: 7.3%
